The values that follow are results of earlier work, collected in PMC3583338 (Clinical pharmacology and therapeutics, 2008).

For `CC(C)c1nc(CN(C)C(=O)N[C@H](C(=O)N[C@@H](Cc2ccccc2)C[C@H](O)[C@H](Cc2ccccc2)NC(=O)OCc2cncs2)C(C)C)cs1` [ritonavir], the “effect on OATP1B1” value in the data set on OATP1B1 is listed as “little or no effect”. Further, the “inhibition of OATP-mediated fexofenadine transport” value in the data set with OATP is listed as 13%. In addition, the “P-gp mRNA expression” value with P-gp is listed as “moderately induced”. Besides, the “effect on OATP1B3” value with OATP1B3 is “little or no effect”.
